A short description of series [1]: In vivo pharmacokinetic study in rats after single administration. The following applies: male, Sprague Dawley, rat, plasma, 2 mg/kg, 2 mpk intravenous injection. The protocol:
Male SD rats were used as test animals, and the concentration of the compound in blood was determined after single administration to evaluate the pharmacokinetic behavior.
Sprague Dawley rats (male, 200-300 g, 7-9 weeks, Shanghai Charles River Laboratory Animal Co., Ltd.)
The pharmacokinetic characteristics of the test compound in rodents after intravenous injection and oral administration were tested by standard protocols, in the experiment, the test compound was prepared into a clear solution or homogeneous suspension, and administered to the rats by single intravenous injection and oral administration. In the intravenous injection group, the menstruum was a certain proportion of ethanol and physiological saline solution or a certain proportion of dimethyl sulfoxide in HP-β cyclodextrin solution (the pH was adjusted to 3-4), the mixture was vortexed and stirred to prepare 1 mg/mL clear solution, then filtered with microporous membrane for later use; in the oral administration group, the menstruum was a certain proportion of sodium carboxymethyl cellulose solution or a certain proportion of dimethyl sulfoxide in HP-β cyclodextrin solution (the pH was adjusted to about 4), after the test compound was mixed with the solvent, the mixture was vortexed and stirred to prepare 30 mg/mL homogeneous suspension for later use. After 2 mg/kg intravenous administration or 300 mg/kg oral administration to rats, a certain amount of whole blood samples were collected, centrifuged at 3000 g for 15 minutes, the supernatant was separated to obtain the plasma samples; then an acetonitrile solution containing internal standard with a volume 3 times that of the plasma sample was added to precipitate proteins, and then centrifuged; the supernatant was separated, and water with a volume twice that of the supernatant was added to the supernatant, which was then centrifuged again; the supernatant was collected for analysis; LC-MS/MS analysis method was used to quantitatively analyze the blood drug concentration, and Phoenix WinNonlin software (Pharsight, USA) was used to calculate the pharmacokinetic parameters, such as peak concentration, time to peak concentration, clearance rate, half-life, area under the concentration-time curve, bioavailability, etc.
Among them, C0 is the initial concentration, T1/2 is the elimination half-life, Vdss is the steady-state apparent volume of distribution, Cl is the total clearance rate, AUC0-inf is the area under the plasma drug concentration-time curve from time 0 to infinity, Cmax is the peak concentration, Tmax is the time to peak concentration.

The target of another series is T1, CYP2D6 (Homo sapiens, UniProt P10635).
T1 construct: from tissue; host or cells: human liver microsomes
T1 sequence (P10635 whole entry): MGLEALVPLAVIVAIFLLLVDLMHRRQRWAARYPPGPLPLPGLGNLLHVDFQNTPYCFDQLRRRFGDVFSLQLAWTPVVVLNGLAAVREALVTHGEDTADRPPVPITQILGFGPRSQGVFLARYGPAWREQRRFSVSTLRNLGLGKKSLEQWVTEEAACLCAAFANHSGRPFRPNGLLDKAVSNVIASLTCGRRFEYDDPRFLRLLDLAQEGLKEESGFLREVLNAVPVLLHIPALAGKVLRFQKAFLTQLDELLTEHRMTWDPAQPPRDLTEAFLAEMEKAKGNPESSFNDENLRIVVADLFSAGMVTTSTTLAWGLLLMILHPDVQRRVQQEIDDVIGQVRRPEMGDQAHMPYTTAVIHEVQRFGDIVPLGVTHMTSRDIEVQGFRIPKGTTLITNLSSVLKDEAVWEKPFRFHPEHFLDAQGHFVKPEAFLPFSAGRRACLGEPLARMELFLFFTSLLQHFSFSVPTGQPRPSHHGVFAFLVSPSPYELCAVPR
Nature of the series: Cytochrome P450 isozyme inhibitory activity test, CYP2D6. In kind it is in vitro ADME. As to conditions: liver microsomes; human liver microsome. The protocol: The inhibitory activities of the test compound on different subtypes of human cytochrome P450 isozymes were determined. The test compound, standard inhibitor (100× final concentration), and a mixed substrate working solution were prepared; the microsome frozen in −80° C. refrigerator was thawed. […]
Background: Liver microsomes are vesicles of endoplasmic reticulum, rich in cytochrome P450 enzymes.

The target of a further series is T2, TrkA (Homo sapiens, UniProt P04629).
T2 construct: purchased Invitrogen PV4114
T2 sequence (P04629 33-796): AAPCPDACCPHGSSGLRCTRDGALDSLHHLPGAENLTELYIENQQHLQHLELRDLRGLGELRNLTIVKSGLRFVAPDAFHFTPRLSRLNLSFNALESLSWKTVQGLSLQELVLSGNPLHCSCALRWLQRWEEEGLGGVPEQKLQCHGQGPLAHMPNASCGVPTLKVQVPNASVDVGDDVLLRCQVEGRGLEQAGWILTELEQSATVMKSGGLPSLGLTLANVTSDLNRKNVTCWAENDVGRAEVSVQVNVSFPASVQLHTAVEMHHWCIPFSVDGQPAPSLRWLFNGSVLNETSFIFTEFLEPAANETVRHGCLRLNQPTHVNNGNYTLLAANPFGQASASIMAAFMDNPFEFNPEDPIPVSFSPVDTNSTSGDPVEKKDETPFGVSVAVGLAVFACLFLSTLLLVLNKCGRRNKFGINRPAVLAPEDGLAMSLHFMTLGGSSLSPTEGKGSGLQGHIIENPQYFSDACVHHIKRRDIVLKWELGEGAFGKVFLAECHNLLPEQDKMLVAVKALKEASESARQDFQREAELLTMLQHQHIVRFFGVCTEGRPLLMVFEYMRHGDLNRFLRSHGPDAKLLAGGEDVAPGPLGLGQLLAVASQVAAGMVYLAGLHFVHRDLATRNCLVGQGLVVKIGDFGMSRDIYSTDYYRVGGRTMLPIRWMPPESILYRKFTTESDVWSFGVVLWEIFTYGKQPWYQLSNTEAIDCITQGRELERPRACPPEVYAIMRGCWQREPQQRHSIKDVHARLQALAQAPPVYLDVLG
Nature of the series: TrkA enzyme activity test (HTRF). The following applies: 0.5 nM TrkA kinase, 90 μM ATP, 23° C. 90 minutes. In kind it is biochemical. The protocol: TK detection kit Cisbio-62TK0PEJ
50 mM Hepes (pH 7.5), 5 mM MgCl2 (magnesium chloride), 0.01 mM orthovanadate (sodium vanadate), 1% BSA (bovine serum albumin), 1 mM (dithiothreitol)
This experiment used Cisbio's homogeneous time-resolved fluorescence resonance energy transfer (HTRF® method) for activity test. In the test plate, the enzyme, biotin-labeled peptide substrate, ATP, and test compound were mixed, and incubated for reaction. After the reaction, ethylenediaminetetraacetic acid was added to terminate the reaction; at the same time, Eu-labeled antibody and streptavidin-labeled XL665 were added for reaction and detection. The data were expressed by the readings of the fluorescence signal at 665 nm and 620 nm, where a high ratio of 665 nm/620 nm indicated higher activity, and a low ratio of 665 nm/620 nm indicated inhibition of activity.
1. […]
2. […] 10 μL of stop solution containing 20 mM EDTA, 1.34 nM phosphorylated substrate antibody, and 100 nM streptavidin-labeled fluorescent molecule XL-665 was then added, incubated at 23° C. for 60 minutes; the signal was read with Envision;
3. The inhibition rate of the compound was calculated from the data read by the instrument, and the IC50 value was calculated using the mode 205 in XLFIT5 of IDBS.
Background: TR-FRET usually uses a lanthanide donor and a delayed reading to cut background.

The term AUC(0-inf) denotes total exposure, with the tail of the curve extrapolated. As usually defined, the clearance is a measure of how efficiently the substance is removed, as volume per time. As a reminder, the half-life is how long it takes for the measured level to halve. A lower half-life goes with fast loss. A word on the IC50: it is the concentration that gives 50% inhibition. High values mean weaker potency, low ones greater potency. In series [1], `COCCN1C[C@@H](n2ccc(F)c2)[C@H](NC(=O)Nc2c(C)c(-c3cnc(C4(F)COC4)nc3)nn2-c2ccccc2)C1` [Compound of formula (I)] gave an AUC(0-inf) of 2.61 µM·h, a C0 of 5.38 µM, a clearance of 22.4 mL/min/kg and a half-life of 33 min. Further, in series [1] (read-out: Vdss), the Vd came out at 0.81 L/kg. The molecule also returned a half-maximal inhibitory concentration (IC50) at 10 min on CYP2D6 of 40.6 µM. The same molecule yielded an IC50 at TrkA of 0.00056 µM.

The values are drawn from patent publication US11708357B2, “Crystal form of pyrrolidinyl urea derivative and application thereof” (ZHANGZHOU PIEN TZE HUANG PHARMACEUTICAL CO., LTD., priority 2020, dated 2023).
